Data as given in patent US11844801B2, “Oral compositions of MK2 pathway inhibitor for treatment of immune conditions” (priority 2020, dated 2023).
Read-outs that look alike come from different tables or passages of the source.

Experiments:
[1] = test system: TNF-α; test: LPS stimulated TNF-α production in human whole blood; type: cell-based
Protocol: Compounds were serially diluted in 100% DMSO (Sigma-Aldrich, D2650) followed by a 50× dilution into DMEM/10% FBS (Gibco, 11965/26140). Vehicle consisted of DMSO at a final assay concentration of 0.1%. Pin tools (V&P Scientific, Inc., VP246) were placed in the wells and the plate was placed at 37° C. with 5% CO2, with gently shaking for five minutes, then pin tools were removed and saved. […] Pin tools were placed in the wells in the same orientation as the previous step and gently shook for five minutes at 37° C. with 5% CO2, then removed. […] The plasma was harvested and assayed for TNF-α, IL-1β, and IL-6 using Meso Scale Discovery Technology V-plex human cytokine kits according to the kit protocol. The kit plates were read using an MSD Sector S 6000 instrument. Calculations to establish cytokine calibration curves and to determine analyte concentrations in the samples were carried out using the MSD DISCOVERY WORKBENCH® analysis software.

[2] = test system: IL-6; test: Poly(I:C) stimulated IL-6 production in human whole blood; type: cell-based; settings: 100 ug/mL, 24 hr
Protocol: Human whole blood assays were performed as described above with the exceptions listed below. […] Compounds were serially diluted in 100% DMSO (Sigma-Aldrich, D2650) followed by a 25× dilution into DMEM/10% FBS (Gibco, 11965/26140). After the one-hour incubation with the compounds or vehicle, 20 μL of poly(I:C) (InvivoGen, HMW, tlrl-pic), in DPBS (Gibco, 14190-136) was added for a final concentration of 100 μg/mL to each well except for the no stimulus wells. After twenty-four hours of incubation with poly(I:C), plasma was harvested and assayed for IP10, IFNγ, IL-6, IL-8 and TNF-α using Meso Scale Discovery Technology V-plex human cytokine kits according to the kit protocol.

[3] = test system: IL-1α; test: Human PBMC LPS stimulated IL-1α biosynthesis; type: cell-based; settings: hPBMC, 100 ng/mL, 24 hr
[4] = clinical; settings: male, human, in vivo

**Q.** With `Cc1cnc(-c2ccnc(C(C)(C)O)n2)cc1-n1c(C)cc(OCc2ncc(F)cc2F)c(Cl)c1=O` (single isomer, unassigned) [ATI-450, 3-chloro-4-((3,5-difluoropyridin-2-yl)methoxy)-2′-(2-(2-hydroxypropan-2-yl)pyrimidin-4-yl)-5′,6-dimethyl-2H-[1,4′-bipyridin]-2-one] as the compound, how does the IC50 ([1]; Human Whole Blood, LPS, 100 ng/mL, 4 or 24 hr, read-out: IC50, TNF-α) read?
**A.** 29 ± 9 nM

**Q.** And the IC50 ([1]; human whole blood, LPS 100 ng/mL, read-out: IC50, LPS-stimulated TNF-α)?
**A.** 10 to 100 nM

**Q.** What about the IC50 [2] of the same compound?
**A.** 13.2 ± 12.8 nM

**Q.** And the IC50 [3]?
**A.** 31.1 nM

**Q.** And the Tmax [4]?
**A.** 2 h
